According to ChEMBL document CHEMBL3045909, “Synthesis and antitumor studies of novel benzopyrano-1,2,3-selenadiazole and spiro[benzopyrano]-1,3,4-thiadiazoline derivatives” (Med Chem Res, 2013):
Activity calls are given as the source filed them. The rule behind the calls is not given here.

How the values were obtained:
MCF7 = experiment: Cytotoxicity against Homo sapiens (human) MCF7 cells assessed as inhibition of cell survival after 96 hr; type: functional, cell-based; settings: MCF7, 96 h
WI-38 = experiment: Cytotoxicity against Homo sapiens (human) WI38 cells assessed as inhibition of cell survival after 96 hr; type: functional, cell-based; settings: WI-38, 96 h
Vero = experiment: Cytotoxicity against Chlorocebus aethiops (African green monkey) Vero cells assessed as inhibition of cell survival after 96 hr; type: functional, cell-based; settings: Chlorocebus sabaeus
HepG2 = experiment: Cytotoxicity against Homo sapiens (human) HepG2 cells assessed as inhibition of cell survival after 96 hr; type: functional, cell-based; settings: HepG2, 96 h
[1] = Antitumor activity against Ehrlich ascites carcinoma cells xenografted in Swiss albino Mus musculus (mouse) assessed as carcinoma cell viability at 50 mg/kg, ip qd for 5 days administered at 24 hr after tumour cell inoculation by trypan blue assay (reference value: 220x10^6/ml); type: functional; settings: route intraperitoneal
[2] = Antitumor activity against Ehrlich ascites carcinoma cells xenografted in Swiss albino Mus musculus (mouse) assessed as mean survival time at 50 mg/kg, ip qd for 9 days administered at 24 hr after tumour cell inoculation (reference value: 9.10/day); type: functional; settings: route intraperitoneal
Mus musculus [3] = experiment: Increase in hematocrit content in Ehrlich ascites carcinoma xenografted Swiss albino Mus musculus (mouse) blood at 50 mg/kg, ip qd for 9 days administered at 24 hr after tumour cell inoculation measured on day 14 post-tumor cell implantation (reference value: 35.50%); type: functional; settings: route intraperitoneal
[4] = Antitumor activity against Ehrlich ascites carcinoma cells xenografted in Swiss albino Mus musculus (mouse) assessed as increase in lifespan at 50 mg/kg, ip qd for 9 days administered at 24 hr after tumour cell inoculation; type: functional; settings: route intraperitoneal
Mus musculus [5] = experiment: Increase in hemoglobin content in Ehrlich ascites carcinoma xenografted Swiss albino Mus musculus (mouse) blood at 50 mg/kg, ip qd for 9 days administered at 24 hr after tumour cell inoculation measured on day 14 post-tumor cell implantation (reference value: 8.70 g/dl); type: functional; settings: route intraperitoneal
[6] = Antitumor activity against Ehrlich ascites carcinoma cells xenografted in Swiss albino Mus musculus (mouse) assessed as increase in lifespan at 20 mg/kg, ip qd for 9 days administered at 24 hr after tumour cell inoculation; type: functional; settings: route intraperitoneal
Ehrlich [7] = experiment: Antitumor activity against Ehrlich ascites carcinoma cells xenografted in Swiss albino Mus musculus (mouse) assessed as decrease in abdominal ascites at 50 mg/kg, ip qd for 9 days administered at 24 hr after tumour cell inoculation; type: functional, organism-based; parameters: dose 50 mg/kg
[8] = Antitumor activity against Ehrlich ascites carcinoma cells xenografted in Swiss albino Mus musculus (mouse) assessed as carcinoma cell viability at 20 mg/kg, ip qd for 5 days administered at 24 hr after tumour cell inoculation by trypan blue assay (reference value: 220x10^6/ml); type: functional; settings: route intraperitoneal
Mus musculus [9] = experiment: Increase in hemoglobin content in Ehrlich ascites carcinoma xenografted Swiss albino Mus musculus (mouse) blood at 20 mg/kg, ip qd for 9 days administered at 24 hr after tumour cell inoculation measured on day 14 post-tumor cell implantation (reference value: 8.70 g/dl); type: functional; settings: route intraperitoneal
[10] = Antitumor activity against Ehrlich ascites carcinoma cells xenografted in Swiss albino Mus musculus (mouse) assessed as mean survival time at 20 mg/kg, ip qd for 9 days administered at 24 hr after tumour cell inoculation (reference value: 9.10/day); type: functional; settings: route intraperitoneal
Mus musculus [11] = experiment: Acute toxicity in Ehrlich ascites carcinoma xenografted Swiss albino Mus musculus (mouse) assessed as decrease in locomotor activity at >500 mg/kg, ip qd for 9 days administered at 24 hr after tumour cell inoculation; type: organism-based; settings: in vivo
Mus musculus [12] = experiment: Neurotoxicity in Ehrlich ascites carcinoma xenografted Swiss albino Mus musculus (mouse) assessed as effect on tremor, twitch, jumping, drowsy at >500 mg/kg, ip qd for 9 days administered at 24 hr after tumour cell inoculation; type: toxicity, organism-based; settings: in vivo
Mus musculus [13] = experiment: Increase in hematocrit content in Ehrlich ascites carcinoma xenografted Swiss albino Mus musculus (mouse) blood at 20 mg/kg, ip qd for 9 days administered at 24 hr after tumour cell inoculation measured on day 14 post-tumor cell implantation (reference value: 35.50%); type: functional; settings: route intraperitoneal
[14] = Acute toxicity in ip dosed Ehrlich ascites carcinoma xenografted Swiss albino Mus musculus (mouse) assessed as mortality administered once a day for 9 days at 24 hr after tumour cell inoculation; type: organism-based; settings: in vivo
Ehrlich [15] = experiment: Antitumor activity against Ehrlich ascites carcinoma cells xenografted in Swiss albino Mus musculus (mouse) assessed as decrease in tumour size at 20 mg/kg, ip qd for 9 days administered at 24 hr after tumour cell inoculation; type: functional, organism-based; parameters: dose 20 mg/kg
Ehrlich [16] = experiment: Antitumor activity against Ehrlich ascites carcinoma cells xenografted in Swiss albino Mus musculus (mouse) assessed as decrease in tumour size at 50 mg/kg, ip qd for 9 days administered at 24 hr after tumour cell inoculation; type: functional, organism-based; parameters: dose 50 mg/kg
Ehrlich [17] = experiment: Antitumor activity against Ehrlich ascites carcinoma cells xenografted in Swiss albino Mus musculus (mouse) assessed as decrease in abdominal ascites at 20 mg/kg, ip qd for 9 days administered at 24 hr after tumour cell inoculation; type: functional, organism-based; parameters: dose 20 mg/kg

SMILES	IC50 (MCF7) [µM]	IC50 (WI-38) [µM]	IC50 (Vero) [µM]	IC50 (HepG2) [µM]	other results
CCC1(C)C/C(=N\NC(N)=S)c2cc(O)ccc2O1 (stereo not drawn)	60	60	60	60	–
NC(=S)N/N=C1\CC2(CCCCC2)Oc2ccc(O)cc21	1340	1120	840	820	–
O=c1[nH]cc(F)c(=O)[nH]1 [FLUOROURACIL]	20	20	–	70	Activity [1]: 123 ×10⁶ /ml; MST [2]: 15.7 days; Activity (Mus musculus [3]): 42.3%; Activity [4]: 72.53%; Activity (Mus musculus [5]): 10 g/dL
O=C1CC2(CCCCC2)Oc2ccc(O)cc21	90	210	90	190	–
CCC1(C)C/C(=N\NC(N)=O)c2cc(O)ccc2O1 (stereo not drawn)	70	70	50	60	–
CC1(C)CC(=O)c2cc(O)ccc2O1	410	430	420	480	–
NC(=S)N/N=C1\CC2(CCCCCC2)Oc2ccc(O)cc21	1620	1510	1440	1440	–
O=C1CC2(CCCCCC2)Oc2ccc(O)cc21	1510	1430	1320	1450	–
NC(=O)N/N=C1\CC2(CCCCCC2)Oc2ccc(O)cc21	1120	1120	1130	1120	–
CCC1(C)CC2(SC(NC(C)=O)=NN2C(C)=O)c2cc(OC(C)=O)ccc2O1 (stereo not drawn)	1010	840	630	620	–
NC(=O)N/N=C1\CC2(CCCCC2)Oc2ccc(O)cc21	70	160	80	150	–
CC1(C)C/C(=N\NC(N)=O)c2cc(O)ccc2O1	150	140	170	120	–
CCC1(C)CC(=O)c2cc(O)ccc2O1 (stereo not drawn)	150	150	150	150	–
CC(=O)NC1=NN(C(C)=O)C2(CC3(CCCC3)Oc3ccc(OC(C)=O)cc32)S1 (stereo not drawn)	50	40	40	50	–
CC1(C)C/C(=N\NC(N)=S)c2cc(O)ccc2O1	140	120	150	140	–
Oc1ccc2c(c1)-c1nn[se]c1C1(CCCCCC1)O2	1490	1610	1190	1150	–
Oc1ccc2c(c1)-c1nn[se]c1C1(CCCCC1)O2	120	110	100	90	–
CCC1(C)Oc2ccc(O)cc2-c2nn[se]c21 (stereo not drawn)	60	50	60	50	Activity [6]: 73.63%; inhibition (Ehrlich [7]): Active; Activity [8]: 107 ×10⁶ /ml; Activity (Mus musculus [9]): 10.5 g/dL; MST [10]: 15.8 days; Activity (Mus musculus [11]): Toxic; Activity (Mus musculus [12]): Non-toxic; Activity (Mus musculus [13]): 43.7%; LD50 at 9 days [14]: 247 mg/kg; inhibition (Ehrlich [15]): Active; inhibition (Ehrlich [16]): Active; inhibition (Ehrlich [17]): Active
CC(=O)NC1=NN(C(C)=O)C2(CC3(CCCCC3)Oc3ccc(OC(C)=O)cc32)S1 (stereo not drawn)	80	80	80	70	–
NC(=S)N/N=C1\CC2(CCCC2)Oc2ccc(O)cc21	100	100	90	100	–
O=C1CC2(CCCC2)Oc2ccc(O)cc21	640	510	740	460	–
CC1(C)Oc2ccc(O)cc2-c2nn[se]c21	60	70	50	60	–
CC(=O)NC1=NN(C(C)=O)C2(CC(C)(C)Oc3ccc(OC(C)=O)cc32)S1 (stereo not drawn)	30	30	30	30	Activity [6]: 98.9%; inhibition (Ehrlich [7]): Active; Activity [8]: 110 ×10⁶ /ml; Activity (Mus musculus [9]): 11.9 g/dL; MST [10]: 18.1 days; Activity (Mus musculus [11]): Toxic; Activity (Mus musculus [12]): Non-toxic; Activity (Mus musculus [13]): 45%; LD50 at 9 days [14]: 248 mg/kg; inhibition (Ehrlich [15]): Active; inhibition (Ehrlich [16]): Active; inhibition (Ehrlich [17]): Active
NC(=O)N/N=C1\CC2(CCCC2)Oc2ccc(O)cc21	110	100	90	100	–
Oc1ccc2c(c1)-c1nn[se]c1C1(CCCC1)O2	60	70	60	60	–
